In paper PMC10778980, “Profiling Novel Quinuclidine-Based Derivatives as Potential Anticholinesterase Drugs: Enzyme Inhibition and Effects on Cell Viability” (International Journal of Molecular Sciences, 2023):
“Also recorded” adds a separate entry of the source. Where two headings read alike, the source gives them in different places.

Key:
SH-SY5Y cells [1] = experiment: Cytotoxicity assay (MTS) on SH-SY5Y; assay type: cell-based; details: Homo sapiens
Description: (§1) SH-SY5Y cells were grown in DMEM F12 (Sigma-Aldrich, St. Louis, MO, USA) supplemented with 15% (v/v) fetal bovine serum (FBS), 2 mM glutamine, and 1% (v/v) non-essential amino acids (NEAA). HepG2 cells were grown in EMEM supplemented with 10% (v/v) FBS, 2 mM glutamine, and 1% (v/v) non-essential amino acids NEAA. All media and supplements were purchased from Sigma-Aldrich, Steinheim, Germany.
(§2) The procedure followed a previously described protocol.

human AChE = biological target: T1, human AChE (Homo sapiens, UniProt P22303); experiment: Reversible inhibition of AChE (Ellman's procedure, Hunter–Downs evaluation); assay type: biochemical; details: for Ki: Ki ± standard error, 0.1, 0.2, 0.35 and 0.5 mM substrate ATCh, 25 °C, pH 7.4; for Ki (AChE)/Ki (BChE): selectivity ratio
T1 construct: The sources of human AChE and BChE were native erythrocytes and plasma, respectively; from tissue; host or cells: human erythrocytes from venous blood of a healthy volunteer
T1 sequence (P22303 32-617 isoform P22303-2 limits assumed): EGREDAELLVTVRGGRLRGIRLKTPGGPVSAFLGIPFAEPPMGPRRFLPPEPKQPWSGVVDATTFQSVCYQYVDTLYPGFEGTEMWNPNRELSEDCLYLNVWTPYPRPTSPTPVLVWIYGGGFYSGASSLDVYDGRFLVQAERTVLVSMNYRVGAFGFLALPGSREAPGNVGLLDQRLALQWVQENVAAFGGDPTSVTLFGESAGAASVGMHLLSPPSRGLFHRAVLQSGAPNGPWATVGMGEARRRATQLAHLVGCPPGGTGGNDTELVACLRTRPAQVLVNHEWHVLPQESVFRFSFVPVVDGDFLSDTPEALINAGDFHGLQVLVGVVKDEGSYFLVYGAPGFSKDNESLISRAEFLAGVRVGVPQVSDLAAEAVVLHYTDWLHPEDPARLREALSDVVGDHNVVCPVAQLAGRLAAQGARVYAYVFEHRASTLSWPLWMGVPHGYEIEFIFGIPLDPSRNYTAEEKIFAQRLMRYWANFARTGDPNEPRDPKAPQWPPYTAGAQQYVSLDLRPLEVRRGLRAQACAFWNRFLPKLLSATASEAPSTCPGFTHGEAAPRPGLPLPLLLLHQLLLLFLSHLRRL
Source text: (§3) Cholinesterase substrate acetylthiocholine (ATCh) and the thiol reagent 5,5′-dithiobis(2-nitrobenzoic acid) (DTNB) for the enzyme activity measurement were purchased from Sigma-Aldrich (St. Louis, MO, USA). The sources of human AChE and BChE were native erythrocytes and plasma, respectively, obtained from the blood of a healthy volunteer and in accordance with the approval of the Ethics Committee of the Institute for Medical Research and Occupational Health (approval number: 100-21/23-6). Erythrocytes and plasma were isolated from the whole blood and prepared according to a previously published procedure. Namely, venous blood was collected into a heparinized tube and centrifuged (at 4 °C, 20 min on 2500 rpm, Eppendorf centrifuge 5702R) to separate plasma from the erythrocytes. Plasma was removed and used as a source of BChE, while erythrocytes were washed twice with the 0.1 M sodium phosphate buffer, pH 7.4, in a volume corresponding to the initial volume of the whole blood. Both plasma and erythrocytes were frozen at −20 °C until use. Quinuclidine compounds were dissolved in dH2O as 10 or 100 mM; exceptionally, 3-hydroxyimino compounds with longer chains (C12−C16) were dissolved in DMSO as 100 mM solutions. Stock solutions were kept at 4 °C until use. Further dilutions were made in distilled water.
(§4) The reversible inhibition experiments followed a previously published procedure. Namely, the enzyme activity was measured in the presence of a wide range of quinuclidine compound concentrations and in the substrate range from 0.1 to 0.5 mM to confirm the type of compound binding. The activity was assayed following the Ellman’s procedure, with the modification in the wavelength used for detection of the TNB anion in the case of AChE activity measurement due to the interference of the hemoglobin, and according to Worek et al.. The assay was performed in 96-well plates on an Infinite M200PRO plate reader (Tecan Austria GmbH, Salzburg, Austria) at 25 °C. Each concentration was tested in triplicate or quadruplicate on each plate. The inhibition mixture contained 0.1 M sodium phosphate buffer, pH 7.4, enzyme (AChE or BChE), quinuclidine compound (0.2–400 μM final), DTNB (0.3 mM final), and ATCh (from 0.1 to 0.5 mM final) to start the reaction. The increase in absorbance was read at 436 nm for AChE and at 412 nm for BChE. The measured activity in the presence of compounds was corrected for the non-enzymatic hydrolysis of substrate ATCh, if detected. The reversible enzyme–quinuclidine complex dissociation constants (the inhibition constants) Ki were evaluated from the effect of the substrate concentration on the degree of inhibition according to the Hunter–Downs equation as described previously, taking into account only quinuclidine concentrations where 20–80% inhibition of the activity was observed.

caspase 8 = experiment: Caspase 8 activity in SH-SY5Y (multiplex activity assay kit); assay type: cell-based, human; details: 4 h treatment, LOAEL concentrations
Description: as §1
Caspases (cysteine-aspartic proteases) caspase 3, caspase 8, and caspase 9 were simultaneously analyzed in cells using specific substrate and fluorogenic indicators from the Caspase-3, Caspase-8, and Caspase-9 Multiplex Activity Assay Kit (Abcam, Cambridge, UK). […] The procedure followed a previously described protocol. […] Data were evaluated from at least three independent experiments (performed in duplicate or triplicate), according to the manufacturer’s assay kit calculation protocol, and presented as a normalized signal to the untreated control.

HepG2 cells [2] = experiment: Cytotoxicity assay (MTS) on HepG2; assay type: cell-based; details: Homo sapiens
Description: as §1, §2

SH-SY5Y cells [3] = experiment: Cell membrane integrity (LDH release) on SH-SY5Y; assay type: cell-based, human; details: 4 h exposure, 12.5–200 µM
Description: (§5) Human neuroblastoma SH-SY5Y (ECACC 94030304) and human hepatocyte carcinoma HepG2 (ECACC 85011430) were used to evaluate in vitro dose- and time-dependent different cell effects. The SH-SY5Y cell line was selected as it represents a well-established model for studying neuronal cells, while HepG2 hepatocytes represent a liver model as a major organ participating in the metabolism of diverse compounds [31, 61, 62]. SH-SY5Y cells were grown in DMEM F12 (Sigma-Aldrich, St. Louis, MO, USA) supplemented with 15% (v/v) fetal bovine serum (FBS), 2 mM glutamine, and 1% (v/v) non-essential amino acids (NEAA). HepG2 cells were grown in EMEM supplemented with 10% (v/v) FBS, 2 mM glutamine, and 1% (v/v) non-essential amino acids NEAA. All media and supplements were purchased from Sigma-Aldrich, Steinheim, Germany.
(§6) Cell membrane integrity was determined after 4 h exposure to derivatives 3–5 and 10–12 by measuring the release of the intracellular lactate dehydrogenase (LDH), and the procedure followed a previously described protocol using The CytoTox-ONE™ Homogeneous Membrane Integrity Assay (Promega, Madison, WI, USA). Triton X-100 at a final concentration of 0.18% (v/v) (stock of 9% in water; Sigma-Aldrich, Steinheim, Germany) was used as a positive control to determine the maximal LDH release. Data were taken from at least two independent experiments (each treatment performed in duplicate) and plotted as a percentage of LDH release compared to the determined maximal LDH release, according to the manufacturer’s calculation protocol.

SH-SY5Y cells [4] = experiment: Mitochondrial membrane potential (TMRE assay) on SH-SY5Y; assay type: cell-based, human; details: 4 h exposure, LOAEL concentrations
Description: as §5
(§7) Mitochondrial membrane potential (ΔΨm) was determined using a cell-permeable, potential-sensitive cationic dye, tetramethylrhodamine ethyl ester perchlorate (TMRE, Cell Signaling Technology Europe, Leiden, The Netherlands). Cells were exposed for 4 h to derivatives 3–5 and 10–12. The procedure followed a previously described protocol. A concentration of 50 µM carbonyl cyanide 3-chlorophenylhydrazone (CCCP, Cell Signaling Technology Europe, Leiden, The Netherlands) was used as a positive control. Data were evaluated from at least three independent experiments (performed in duplicate) and presented as a normalized signal to the untreated control, according to the manufacturer’s calculation protocol.

HepG2 cells [5] = experiment: Mitochondrial membrane potential (TMRE assay) on HepG2; assay type: cell-based, human; details: HepG2, 4 h exposure, LOAEL concentrations
Description: as §5, §7

human BChE = biological target: T2, human BChE (Homo sapiens, UniProt P06276); experiment: biochemical; details: Ki ± standard error; 0.1, 0.2, 0.35 and 0.5 mM substrate ATCh; 25 °C, pH 7.4; read-out: Ki BChE
T2 construct: Plasma was removed and used as a source of BChE; from tissue; host or cells: human blood plasma from a healthy volunteer
T2 sequence (P06276 29-602): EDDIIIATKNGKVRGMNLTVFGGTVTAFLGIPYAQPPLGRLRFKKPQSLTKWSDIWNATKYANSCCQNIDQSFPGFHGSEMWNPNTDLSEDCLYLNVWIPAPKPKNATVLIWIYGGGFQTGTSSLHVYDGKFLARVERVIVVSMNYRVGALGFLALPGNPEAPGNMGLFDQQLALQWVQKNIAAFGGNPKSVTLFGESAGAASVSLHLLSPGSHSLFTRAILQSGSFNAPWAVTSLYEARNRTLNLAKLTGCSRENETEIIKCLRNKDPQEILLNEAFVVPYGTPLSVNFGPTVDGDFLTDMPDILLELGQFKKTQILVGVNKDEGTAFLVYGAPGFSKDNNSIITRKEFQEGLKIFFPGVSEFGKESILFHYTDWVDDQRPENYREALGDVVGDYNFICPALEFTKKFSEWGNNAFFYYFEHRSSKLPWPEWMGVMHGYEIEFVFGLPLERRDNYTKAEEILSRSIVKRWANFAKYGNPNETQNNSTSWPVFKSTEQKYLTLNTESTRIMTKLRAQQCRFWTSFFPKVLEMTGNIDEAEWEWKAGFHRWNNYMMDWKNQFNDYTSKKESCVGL
Source text: as §3, §4

HepG2 cells [6] = experiment: Cell membrane integrity (LDH release) on HepG2; assay type: cell-based, human; details: HepG2, 4 h exposure, 12.5–200 µM
Description: as §5, §6

SH-SY5Y cells [7] = details: cited from earlier work
[8] = 4 h exposure, read-out: IC50 ± SE SH-SY5Y 4 h
[9] = 24 h exposure, read-out: IC50 ± SE SH-SY5Y 24 h
[10] = read-out: IC50 ± SE SH-SY5Y 1 h, 1 h exposure
[11] = HepG2, read-out: IC50 ± SE HepG2 1 h, 1 h exposure
[12] = HepG2, 4 h exposure, read-out: IC50 ± SE HepG2 4 h
[13] = HepG2, 24 h exposure, read-out: IC50 ± SE HepG2 24 h

CCCCCCCCCCCCCCCC[N+]12CCC(CC1)/C(=N\O)C2 [Compound 12]
IC50 (SH-SY5Y cells [1]; [8]): 78 ± 1 µM
IC50 (SH-SY5Y cells [1]; [9]): 54 ± 1 µM
IC50 (SH-SY5Y cells [1]; [10]): 89 ± 1 µM
Ki (human AChE): 19 ± 1.6 µM
Ki (AChE)/Ki (BChE) (human AChE): 0.4
Caspase 8 activation (caspase 8): significant activation
IC50 (HepG2 cells [2]; [11]): 40 ± 1 µM
IC50 (HepG2 cells [2]; [12]): 20 ± 1 µM
IC50 (HepG2 cells [2]; [13]): 7 ± 1 µM
LDH release (SH-SY5Y cells [3]): strongest effect; also recorded: significant LDH release
Mitochondrial membrane potential (ΔΨm) (SH-SY5Y cells [4]): decrease in the mitochondrial membrane potential
Mitochondrial membrane potential (ΔΨm) (HepG2 cells [5]): decrease in the mitochondrial membrane potential
Ki (human BChE): 48.6 ± 3.8 µM
LDH release (HepG2 cells [6]): significant LDH release

CCCCCCCCCCCC[N+]12CCC(CC1)/C(=N\O)C2 [Compound 10]
IC50 (SH-SY5Y cells [7]; [9]): 147 ± 1 µM
IC50 (SH-SY5Y cells [1]; [8]): 174 ± 1 µM
IC50 (SH-SY5Y cells [1]; [10]): 208 ± 3 µM
Ki (human AChE): 14.3 ± 1.8 µM
Ki (AChE)/Ki (BChE) (human AChE): 2.6
Caspase 8 activation (caspase 8): significant activation
IC50 (HepG2 cells [2]; [11]): 218 ± 1 µM
IC50 (HepG2 cells [2]; [12]): 81 ± 1 µM
IC50 (HepG2 cells [2]; [13]): 15 ± 1 µM
LDH release (SH-SY5Y cells [3]): strongest effect; also recorded: significant LDH release
Mitochondrial membrane potential (ΔΨm) (SH-SY5Y cells [4]): decrease in the mitochondrial membrane potential
Mitochondrial membrane potential (ΔΨm) (HepG2 cells [5]): decrease in the mitochondrial membrane potential
Ki (human BChE): 5.4 ± 0.8 µM
LDH release (HepG2 cells [6]): significant LDH release

CN[C@@H]1C[C@H]2O[C@@](C)([C@@H]1OC)n1c3ccccc3c3c4c(c5c6ccccc6n2c5c31)C(=O)NC4 [SS, staurosporine]
IC50 (SH-SY5Y cells [7]; 24 h exposure, controls, read-out: IC50 ± SE SH-SY5Y 24 h): 0.12 ± 0.01 µM
IC50 (SH-SY5Y cells [7]; read-out: IC50 ± SE SH-SY5Y 1 h, 1 h exposure, controls): ≥ 4 µM

CCCCCCCCCCCCCC[N+]12CCC(CC1)/C(=N\O)C2 [Compound 11]
IC50 (SH-SY5Y cells [1]; [8]): 83 ± 3 µM
IC50 (SH-SY5Y cells [1]; [9]): 60 ± 1 µM
IC50 (SH-SY5Y cells [1]; [10]): 125 ± 2 µM
Ki (human AChE): 7 ± 0.9 µM
Ki (AChE)/Ki (BChE) (human AChE): 0.8
Caspase 8 activation (caspase 8): significant activation
IC50 (HepG2 cells [2]; [11]): 37 ± 1 µM
IC50 (HepG2 cells [2]; [12]): 18 ± 1 µM
IC50 (HepG2 cells [2]; [13]): 11 ± 1 µM
LDH release (SH-SY5Y cells [3]): strongest effect; also recorded: significant LDH release
Mitochondrial membrane potential (ΔΨm) (SH-SY5Y cells [4]): decrease in the mitochondrial membrane potential
Mitochondrial membrane potential (ΔΨm) (HepG2 cells [5]): decrease in the mitochondrial membrane potential
Ki (human BChE): 8.8 ± 1 µM
LDH release (HepG2 cells [6]): significant LDH release
